Patent US20250360111A1, “COMPOSITIONS OF AGPAT4 INHIBITORS AND METHODS OF USING THEREOF TO TREAT CANCER” (The University of Hong Kong, priority 2024, published 2025)

How the values were obtained:
[1] = target: T1, Purified human AGPAT4 protein (Homo sapiens, UniProt Q9NRZ5); test: In vitro binding to AGPAT4 by gel-based ABPP (competition with IA-rhodamine); details: loss of IA-rhodamine fluorescence
T1 construct: The open reading frame (ORF) encoding the mRNA of AGPAT4 was cloned into pGEX-4T1; made in house; host or cells: Escherichia coli BL21
T1 sequence (Q9NRZ5 1-378): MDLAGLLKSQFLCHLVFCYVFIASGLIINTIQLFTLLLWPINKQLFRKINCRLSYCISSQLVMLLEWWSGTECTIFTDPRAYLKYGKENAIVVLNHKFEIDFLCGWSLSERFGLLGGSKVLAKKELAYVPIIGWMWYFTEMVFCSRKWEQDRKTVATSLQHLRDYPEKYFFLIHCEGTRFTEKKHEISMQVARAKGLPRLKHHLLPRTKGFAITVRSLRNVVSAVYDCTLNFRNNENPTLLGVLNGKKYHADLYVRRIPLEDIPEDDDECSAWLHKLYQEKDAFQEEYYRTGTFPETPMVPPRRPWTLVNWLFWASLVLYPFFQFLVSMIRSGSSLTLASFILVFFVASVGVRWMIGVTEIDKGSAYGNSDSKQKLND
Method: Purified human AGPAT4 protein (0.1 μg) was incubated with library compounds at 25 μM (unless indicated) for 1 h at room temperature, followed by incubation with IA-rhodamine (1 μM) for 1 h. Sampling buffer was added and the samples were denatured by boiling at 90° C. The samples were resolved by SDS-PAG E and fluorescence signals were captured using ChemiDoc MP (Bio-Rad) before silver staining to assess protein loading. The band fluorescence intensity was quantified using the ImageJ software.

[2] = target: T2, AGPAT4 (Homo sapiens, UniProt Q9NRZ5); test: Competitive gel-based ABPP in live cells with CL26-alkyne probe; assay type: cell-based; details: Huh7 cells stably expressing FLAG-AGPAT4
T2 construct: The open reading frame (ORF) encoding the mRNA of AGPAT4 was cloned into the pDONR-221 donor vector; expressed in transfected cells; host or cells: Huh7
T2 sequence (Q9NRZ5 1-378): T1 sequence (Q9NRZ5 1-378)
Method: (§1) An in-gel fluorescence assay was performed to investigate the protein targets of CL26. Huh7 cells overexpressing AGPAT4 or cysteine mutants were pre-treated with CL26 at the indicated concentrations for 2 h, followed by CL26-alkyne (1 μM) treatment for another 2 h. Cells were harvested in RIPA buffer supplemented with protease and phosphatase inhibitors (Thermo Fisher Scientific #A32961). The proteins were precipitated by incubation with 6× volume of pre-chilled acetone at −20° C. overnight. Proteins were pelleted by centrifugation at 5000 g for 10 min and resuspended in PBS. The protein content was measured using the BCA assay and normalized to 2 mg/mL. Cell lysates (50 μL) were labelled with azide-fluor 545 by click reaction (final reaction mixture: azide-fluor 545 (25 μM), copper(II) sulfate (1 mM), TBTA (100 μM), and freshly prepared TCEP (1 mM)) at room temperature with constant agitation. After incubation for 1 h, the reaction was quenched with the sampling buffer and boiled at 90° C. for 5 min. Samples were subjected to SDS-PAGE, in-gel fluorescence was captured using ChemiDoc MP (Bio-Rad), and Coomassie Blue staining was performed. Similarly, immunoblotting was used to investigate the protein targets of CL26. Huh7 cells stably transfected with FLAG-AGPAT4 were pre-treated with either the solvent control or CL26 at the indicated concentrations for 2 h, followed by CL26-alkyne (10 μM) treatment for another 2 h. Cells were harvested, and lysates were prepared as described above unless specified. Anti-FLAG M 2 affinity beads were added in FLAG-tag pull-down experiments. After 4 h of incubation at 4° C., the beads were washed with TBS-T and resuspended in TBS-T. Sampling buffer was added and the samples were boiled for protein elution. The samples were subjected to SDS-PAG E and imaged for fluorescence signals before western blot analysis. In the probe pull-down experiment, 1 mL of lysate was labelled with desthiobiotin (DTB)-azide by a click reaction (final reaction mixture: copper(II) sulfate (1 mM), TBTA (100 μM), DTB-PEG-azide (100 μM), and freshly prepared TCEP (1 mM)). […]

[3] = tested on: AGPAT4; test: as above; assay type: cell-based, human; details: Huh7 cells, empty vector vs FLAG-AGPAT4; silver staining of enriched proteins
Method: as §1

[4] = tested on: AGPAT LPAAT family members (AGPAT1, 2, 3, 4 and 5); test: Isoform specificity: streptavidin pulldown and immunoblotting of CL26-alkyne-bound proteins; assay type: cell-based, human; details: Huh7 cells, DTB-PEG-azide, streptavidin pulldown
Method: An in-gel fluorescence assay was performed to investigate the protein targets of CL26. Huh7 cells overexpressing AGPAT4 or cysteine mutants were pre-treated with CL26 at the indicated concentrations for 2 h, followed by CL26-alkyne (1 μM) treatment for another 2 h. Cells were harvested in RIPA buffer supplemented with protease and phosphatase inhibitors (Thermo Fisher Scientific #A32961). The proteins were precipitated by incubation with 6× volume of pre-chilled acetone at −20° C. overnight. Proteins were pelleted by centrifugation at 5000 g for 10 min and resuspended in PBS. The protein content was measured using the BCA assay and normalized to 2 mg/mL. Cell lysates (50 μL) were labelled with azide-fluor 545 by click reaction (final reaction mixture: azide-fluor 545 (25 μM), copper(II) sulfate (1 mM), TBTA (100 μM), and freshly prepared TCEP (1 mM)) at room temperature with constant agitation. After incubation for 1 h, the reaction was quenched with the sampling buffer and boiled at 90° C. for 5 min. Samples were subjected to SDS-PAGE, in-gel fluorescence was captured using ChemiDoc MP (Bio-Rad), and Coomassie Blue staining was performed. Similarly, immunoblotting was used to investigate the protein targets of CL26. […] The samples were subjected to SDS-PAG E and imaged for fluorescence signals before western blot analysis. […]

[5] = tested on: MHCC97L and MHCC97H vs. Huh7 and LO2 cells; test: XTT assay, viability assay and excess over bliss synergy analysis; assay type: cell-based, human; details: CL26 combined with sorafenib, 48 h
Method: (§2) Cells (1×10^3 cells/well) were seeded in 96-well plates and cultured in complete medium for 24 h. Subsequently, sorafenib and/or CL26 was added to the culture and incubated for 48 h. The XTT tetrazolium reagent (Gold Biotechnology) and phenazine methosulfate (Thermo Fisher Scientific) were premixed and added to each well. The absorbance at 450 nm was measured using a Victor 3 microplate reader (PerkinElimer). Drug interactions were evaluated using the bliss independence model. According to this model, the expected growth inhibition (Eexp) resulting from the combination of drugs A and B was calculated using the following equation: Eexp=Ea+Eb−Ea×Eb, with Ea representing the growth inhibition caused by drug A alone and Eb representing the growth inhibition caused by drug B alone. To assess drug interactions, the difference between the observed growth inhibition (Eobs) and expected growth inhibition (Eexp) was calculated.
(§3) 1×10^4 cells were seeded in a 6-well plate and cultured in complete medium for 24 h. Subsequently, sorafenib and/or CL26 was added to the culture and incubated for 48 h. Dead cells were carefully washed with PBS, and the remaining viable cells were fixed using 4% paraformaldehyde (Sigma-Aldrich) and visualized by staining with 2% crystal violet (Sigma-Aldrich).

[6] = tested on: sorafenib-sensitive and sorafenib-resistant HepG2 cells; test: as above; assay type: cell-based, human; details: CL26 combined with sorafenib, 48 h
Method: as §2, §3

[7] = tested on: HCC PDX model #1 and sorafenib-resistant HCC PDX model #2
From the text: HCC PDX #1 were first expanded in NOD-SCID mice as described previously (21). Sorafenib-resistant HCC PDX #2 was established and expanded as described previously (29). Dissociated PDX tumors (5×10^5 cells in 100% Matrigel) were orthotopically injected into the left lobes of the livers of 6-week-old BA L B/c nude mice (n=6-10 per group). Drug administration was initiated three weeks after inoculation. The mice were then randomized for treatment with DMSO, sorafenib, 30% PET (30% PEG400/15% ethanol/5% Tween 80 in saline), or CL26 (1 mg/kg or 10 mg/kg, delivered intraperitoneally thrice per week). Seven weeks post-inoculation, tumor-bearing mice were sacrificed. The livers were harvested for histological and ex vivo limiting dilution analyses.

[8] = sorafenib orally plus CL26 intraperitoneally

Structure (SMILES): O=C(CCl)NCc1ccc(-c2nc3ccccc3s2)o1 [CL26, N-[[5-(2-benzothiazolyl)-2-furanyl]methyl]-2-chloroacetamide]
- IC50 [1]: 766 nM
- in-gel fluorescence of CL26-alkyne-bound AGPAT4 upon CL26 pre-treatment (target engagement) [2]: significant decrease in fluorescence intensity
- off-target binding [3]: minimal off-target binding
- specificity for AGPAT4 over other AGPAT LPAAT family members [4]: only targets AGPAT4 and no other related AGPAT isoforms
- synergistic effect with sorafenib (excess over bliss scores) [5]: synergistic effect was observed solely in cells with high AGPAT4-expressing MHCC97L and MHCC97H cells
- synergistic effect with sorafenib [6]: exclusively observed in sorafenib-resistant HepG2 cells
- body weight vs control group ([7]; PDX mice treated with CL26): did not exhibit significant differences in body weight
- p-mTOR levels, multiplex immunohistochemistry ([7]; PDX tumors): reduction in p-mTOR levels
- self-renewal ability, ex vivo limiting dilution analysis ([7]; combination with sorafenib): decreased self-renewal ability
- survival rate ([7]; combination with sorafenib, HCC PDX model #2): highest survival rate
- number of tumor nodules [7, 8]: significant effect in reducing
- tumor size [7, 8]: significant effect in reducing
- tumor weight [7, 8]: significant effect in reducing
